Results reported in patent US20120258993A1, “NON-NATURAL MACROCYCLIC AMIDE HDAC6 INHIBITOR COMPOUNDS AND THEIR USES AS THERAPEUTIC AGENTS” (SIGMA-TAU INDUSTRIE FARMACEUTICHE RIUNITE S.P.A., priority 2009, published 2012).
pIC50: −log10 of the molar value.

Columns and labels:
Assay in all cases: HDAC enzyme inhibition, fluorogenic peptide substrate
Type in all cases: biochemical
Settings in all cases: purified human enzyme, fluorogenic peptide substrate 10 μM
HDAC1 = HDAC1 (Homo sapiens, UniProt Q13547)
Sequence of HDAC1 (Q13547 whole entry): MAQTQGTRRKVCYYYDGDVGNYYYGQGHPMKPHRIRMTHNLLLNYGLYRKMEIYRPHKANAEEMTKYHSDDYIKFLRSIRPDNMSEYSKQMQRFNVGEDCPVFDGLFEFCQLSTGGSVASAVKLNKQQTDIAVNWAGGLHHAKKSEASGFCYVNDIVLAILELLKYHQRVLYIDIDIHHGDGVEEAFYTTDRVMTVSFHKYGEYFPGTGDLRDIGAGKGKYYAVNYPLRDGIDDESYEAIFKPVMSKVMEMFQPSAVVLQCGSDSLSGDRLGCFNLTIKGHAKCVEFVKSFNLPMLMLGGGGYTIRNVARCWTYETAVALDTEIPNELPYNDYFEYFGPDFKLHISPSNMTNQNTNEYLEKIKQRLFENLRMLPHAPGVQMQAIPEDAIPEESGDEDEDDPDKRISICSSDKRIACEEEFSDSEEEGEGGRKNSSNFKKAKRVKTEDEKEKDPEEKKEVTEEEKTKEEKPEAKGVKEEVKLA
Procedure: (§1) The substrate was incubated with the eleven single HDAC purified enzymes. Upon its deacetylation, the fluorophore was released given rise to fluorescence emission. The latter was detected by a fluorimeter, and the IC50 values of the compounds were determined by analyzing dose-response inhibition curves. TSA and SAHA were used as reference compounds.

HDAC10 = molecular target: T1, HDAC10 (Homo sapiens, UniProt Q969S8)
T1 sequence (Q969S8 1-669): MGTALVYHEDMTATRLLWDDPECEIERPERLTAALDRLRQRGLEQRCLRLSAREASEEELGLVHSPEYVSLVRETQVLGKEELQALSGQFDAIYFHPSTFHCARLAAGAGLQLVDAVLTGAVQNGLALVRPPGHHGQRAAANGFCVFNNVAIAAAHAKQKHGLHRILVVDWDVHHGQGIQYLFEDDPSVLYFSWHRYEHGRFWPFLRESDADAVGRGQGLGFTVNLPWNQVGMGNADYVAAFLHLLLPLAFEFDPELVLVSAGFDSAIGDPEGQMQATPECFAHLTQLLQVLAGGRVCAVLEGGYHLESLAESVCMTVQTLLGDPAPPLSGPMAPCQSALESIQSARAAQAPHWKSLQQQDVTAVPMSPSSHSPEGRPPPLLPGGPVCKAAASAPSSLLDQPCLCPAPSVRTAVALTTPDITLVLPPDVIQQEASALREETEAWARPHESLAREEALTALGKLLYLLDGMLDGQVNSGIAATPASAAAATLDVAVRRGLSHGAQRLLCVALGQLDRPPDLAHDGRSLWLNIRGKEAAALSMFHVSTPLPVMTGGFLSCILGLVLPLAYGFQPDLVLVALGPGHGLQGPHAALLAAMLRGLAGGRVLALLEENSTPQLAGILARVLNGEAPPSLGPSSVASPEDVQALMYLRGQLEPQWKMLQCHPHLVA
Procedure: as §1

HDAC11 = molecular target: T2, HDAC11 (Homo sapiens, UniProt Q96DB2)
T2 sequence (Q96DB2 1-347): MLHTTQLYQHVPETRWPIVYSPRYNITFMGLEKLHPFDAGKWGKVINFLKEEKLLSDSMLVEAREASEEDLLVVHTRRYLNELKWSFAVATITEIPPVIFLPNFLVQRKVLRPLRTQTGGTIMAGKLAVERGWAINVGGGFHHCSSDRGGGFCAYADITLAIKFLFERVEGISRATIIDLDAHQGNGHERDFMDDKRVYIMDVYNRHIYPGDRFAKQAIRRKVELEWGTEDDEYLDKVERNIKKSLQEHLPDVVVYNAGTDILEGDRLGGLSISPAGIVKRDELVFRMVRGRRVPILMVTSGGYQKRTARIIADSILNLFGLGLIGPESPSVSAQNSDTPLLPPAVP
Procedure: as §1

HDAC2 = HDAC2 (Homo sapiens, UniProt Q92769)
Sequence of HDAC2 (Q92769 whole entry): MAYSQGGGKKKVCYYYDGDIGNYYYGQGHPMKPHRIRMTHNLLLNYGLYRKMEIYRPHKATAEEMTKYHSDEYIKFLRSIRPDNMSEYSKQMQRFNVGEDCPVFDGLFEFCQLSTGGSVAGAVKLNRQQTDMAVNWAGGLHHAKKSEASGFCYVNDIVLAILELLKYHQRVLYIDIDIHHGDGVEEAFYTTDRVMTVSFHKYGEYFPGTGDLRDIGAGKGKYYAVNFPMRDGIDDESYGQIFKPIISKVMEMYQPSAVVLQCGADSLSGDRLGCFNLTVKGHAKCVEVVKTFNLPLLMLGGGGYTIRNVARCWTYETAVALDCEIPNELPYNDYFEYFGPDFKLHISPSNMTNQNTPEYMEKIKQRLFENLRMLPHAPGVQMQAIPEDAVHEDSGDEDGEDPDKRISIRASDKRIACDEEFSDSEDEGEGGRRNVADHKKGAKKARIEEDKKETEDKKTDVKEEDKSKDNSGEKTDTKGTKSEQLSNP
Procedure: as §1

HDAC3 = HDAC3 (Homo sapiens, UniProt O15379)
Sequence of HDAC3 (O15379 whole entry): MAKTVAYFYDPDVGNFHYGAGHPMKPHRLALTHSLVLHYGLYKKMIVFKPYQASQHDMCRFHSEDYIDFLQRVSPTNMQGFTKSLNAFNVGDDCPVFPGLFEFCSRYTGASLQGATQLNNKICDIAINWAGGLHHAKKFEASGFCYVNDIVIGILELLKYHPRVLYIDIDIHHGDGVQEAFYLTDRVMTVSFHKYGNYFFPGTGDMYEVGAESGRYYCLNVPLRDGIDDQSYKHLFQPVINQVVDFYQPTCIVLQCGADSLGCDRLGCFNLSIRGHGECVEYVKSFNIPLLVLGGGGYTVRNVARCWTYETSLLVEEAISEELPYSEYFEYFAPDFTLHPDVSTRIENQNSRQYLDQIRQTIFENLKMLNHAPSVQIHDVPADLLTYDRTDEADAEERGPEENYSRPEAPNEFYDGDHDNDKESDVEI
Sequence of HDAC3 (Q9Y618 395-489 partner limits assumed): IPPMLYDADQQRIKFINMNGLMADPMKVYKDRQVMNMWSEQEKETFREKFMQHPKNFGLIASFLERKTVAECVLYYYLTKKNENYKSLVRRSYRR
Procedure: as §1

HDAC4 = HDAC4 (Homo sapiens, UniProt P56524)
Sequence of HDAC4 (P56524 whole entry): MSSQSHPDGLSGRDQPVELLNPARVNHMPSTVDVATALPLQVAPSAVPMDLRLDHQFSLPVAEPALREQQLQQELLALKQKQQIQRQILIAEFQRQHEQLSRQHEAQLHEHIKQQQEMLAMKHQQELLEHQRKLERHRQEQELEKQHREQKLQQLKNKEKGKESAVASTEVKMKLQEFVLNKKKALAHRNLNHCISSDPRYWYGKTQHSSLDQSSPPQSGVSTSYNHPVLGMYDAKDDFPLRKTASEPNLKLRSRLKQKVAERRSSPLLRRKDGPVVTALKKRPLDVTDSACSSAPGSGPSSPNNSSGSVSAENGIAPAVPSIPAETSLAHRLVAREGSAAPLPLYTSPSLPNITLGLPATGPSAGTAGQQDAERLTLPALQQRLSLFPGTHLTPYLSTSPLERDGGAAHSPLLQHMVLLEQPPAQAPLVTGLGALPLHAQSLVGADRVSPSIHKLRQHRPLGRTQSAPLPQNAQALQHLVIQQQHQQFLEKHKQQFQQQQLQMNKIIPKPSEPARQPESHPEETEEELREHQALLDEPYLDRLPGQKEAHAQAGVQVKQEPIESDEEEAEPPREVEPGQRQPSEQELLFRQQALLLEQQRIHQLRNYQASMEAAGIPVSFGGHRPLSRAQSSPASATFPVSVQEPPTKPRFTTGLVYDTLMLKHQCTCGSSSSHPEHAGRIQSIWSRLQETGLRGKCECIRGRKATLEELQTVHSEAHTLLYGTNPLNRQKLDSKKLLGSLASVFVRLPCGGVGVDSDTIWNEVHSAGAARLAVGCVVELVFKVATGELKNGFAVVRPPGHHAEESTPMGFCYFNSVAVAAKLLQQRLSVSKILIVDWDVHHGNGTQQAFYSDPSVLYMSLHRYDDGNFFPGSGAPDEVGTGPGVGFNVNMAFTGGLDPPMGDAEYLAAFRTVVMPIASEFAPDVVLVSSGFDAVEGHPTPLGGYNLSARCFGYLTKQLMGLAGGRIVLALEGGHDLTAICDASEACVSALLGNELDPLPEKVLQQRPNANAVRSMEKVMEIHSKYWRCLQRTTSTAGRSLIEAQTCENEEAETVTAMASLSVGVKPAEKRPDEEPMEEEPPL
Procedure: as §1

HDAC5 = HDAC5 (Homo sapiens, UniProt Q9UQL6)
Sequence of HDAC5 (Q9UQL6 whole entry): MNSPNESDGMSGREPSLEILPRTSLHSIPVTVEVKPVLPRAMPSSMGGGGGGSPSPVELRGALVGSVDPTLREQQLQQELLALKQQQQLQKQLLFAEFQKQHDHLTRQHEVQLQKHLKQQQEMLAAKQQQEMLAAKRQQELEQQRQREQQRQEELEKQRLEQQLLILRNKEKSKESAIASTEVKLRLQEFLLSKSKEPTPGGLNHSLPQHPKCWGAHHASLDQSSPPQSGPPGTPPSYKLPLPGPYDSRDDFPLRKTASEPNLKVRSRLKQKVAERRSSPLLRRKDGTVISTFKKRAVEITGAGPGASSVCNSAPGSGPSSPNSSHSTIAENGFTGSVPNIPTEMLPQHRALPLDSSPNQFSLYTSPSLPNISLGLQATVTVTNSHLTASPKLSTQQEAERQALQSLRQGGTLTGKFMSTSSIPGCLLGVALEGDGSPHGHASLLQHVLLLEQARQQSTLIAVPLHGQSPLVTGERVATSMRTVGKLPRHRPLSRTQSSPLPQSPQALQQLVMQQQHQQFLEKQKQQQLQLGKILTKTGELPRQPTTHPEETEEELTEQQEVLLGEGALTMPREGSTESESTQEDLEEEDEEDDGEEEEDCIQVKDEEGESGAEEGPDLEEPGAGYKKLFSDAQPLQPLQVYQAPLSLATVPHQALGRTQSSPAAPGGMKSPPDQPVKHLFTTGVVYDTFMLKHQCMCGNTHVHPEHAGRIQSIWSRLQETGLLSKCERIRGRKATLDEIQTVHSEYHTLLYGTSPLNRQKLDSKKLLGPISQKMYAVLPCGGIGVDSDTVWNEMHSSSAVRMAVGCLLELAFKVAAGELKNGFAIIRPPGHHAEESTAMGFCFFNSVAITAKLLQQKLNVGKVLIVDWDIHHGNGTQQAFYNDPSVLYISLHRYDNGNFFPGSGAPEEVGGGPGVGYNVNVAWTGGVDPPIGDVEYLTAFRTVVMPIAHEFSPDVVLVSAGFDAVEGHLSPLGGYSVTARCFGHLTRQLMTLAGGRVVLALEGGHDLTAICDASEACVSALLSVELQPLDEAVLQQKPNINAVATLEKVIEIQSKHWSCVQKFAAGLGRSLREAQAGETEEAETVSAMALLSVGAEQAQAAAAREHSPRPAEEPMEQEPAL
Procedure: as §1

HDAC6 = molecular target: T3, HDAC6 (Homo sapiens, UniProt Q9UBN7)
T3 sequence (Q9UBN7 1-1215): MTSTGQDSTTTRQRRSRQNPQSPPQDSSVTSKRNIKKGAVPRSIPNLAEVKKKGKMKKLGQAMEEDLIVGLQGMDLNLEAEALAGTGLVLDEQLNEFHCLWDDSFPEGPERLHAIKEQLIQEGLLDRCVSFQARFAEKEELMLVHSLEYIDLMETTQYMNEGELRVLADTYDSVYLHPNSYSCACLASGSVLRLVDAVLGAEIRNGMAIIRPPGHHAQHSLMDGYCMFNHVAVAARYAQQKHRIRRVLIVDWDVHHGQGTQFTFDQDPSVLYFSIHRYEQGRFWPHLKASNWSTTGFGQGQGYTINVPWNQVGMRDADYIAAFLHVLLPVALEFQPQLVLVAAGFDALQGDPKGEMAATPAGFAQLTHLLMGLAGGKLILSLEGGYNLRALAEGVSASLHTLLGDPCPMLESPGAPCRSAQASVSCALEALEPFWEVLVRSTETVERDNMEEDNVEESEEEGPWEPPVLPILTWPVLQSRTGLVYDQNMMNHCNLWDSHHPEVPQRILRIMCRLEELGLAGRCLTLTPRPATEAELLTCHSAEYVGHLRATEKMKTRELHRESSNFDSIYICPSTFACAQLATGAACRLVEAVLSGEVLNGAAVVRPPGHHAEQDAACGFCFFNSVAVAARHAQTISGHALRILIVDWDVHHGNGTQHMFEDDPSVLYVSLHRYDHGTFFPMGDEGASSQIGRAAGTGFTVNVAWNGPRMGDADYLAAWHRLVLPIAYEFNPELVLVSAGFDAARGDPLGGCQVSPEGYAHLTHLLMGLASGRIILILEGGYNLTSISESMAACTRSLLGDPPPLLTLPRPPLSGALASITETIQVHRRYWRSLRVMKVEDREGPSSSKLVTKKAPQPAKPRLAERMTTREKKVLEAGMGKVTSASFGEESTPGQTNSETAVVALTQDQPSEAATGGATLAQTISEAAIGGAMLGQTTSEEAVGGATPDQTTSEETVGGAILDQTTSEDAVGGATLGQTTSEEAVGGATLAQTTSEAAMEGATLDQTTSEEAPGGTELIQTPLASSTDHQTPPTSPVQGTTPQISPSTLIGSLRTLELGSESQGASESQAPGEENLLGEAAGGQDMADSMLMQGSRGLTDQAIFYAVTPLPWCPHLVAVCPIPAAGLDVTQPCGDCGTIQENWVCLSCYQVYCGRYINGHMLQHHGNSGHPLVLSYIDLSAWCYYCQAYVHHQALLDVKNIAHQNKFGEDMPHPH
Procedure: as §1

HDAC8 = molecular target: T4, HDAC8 (Homo sapiens, UniProt Q9BY41)
T4 sequence (Q9BY41 1-377): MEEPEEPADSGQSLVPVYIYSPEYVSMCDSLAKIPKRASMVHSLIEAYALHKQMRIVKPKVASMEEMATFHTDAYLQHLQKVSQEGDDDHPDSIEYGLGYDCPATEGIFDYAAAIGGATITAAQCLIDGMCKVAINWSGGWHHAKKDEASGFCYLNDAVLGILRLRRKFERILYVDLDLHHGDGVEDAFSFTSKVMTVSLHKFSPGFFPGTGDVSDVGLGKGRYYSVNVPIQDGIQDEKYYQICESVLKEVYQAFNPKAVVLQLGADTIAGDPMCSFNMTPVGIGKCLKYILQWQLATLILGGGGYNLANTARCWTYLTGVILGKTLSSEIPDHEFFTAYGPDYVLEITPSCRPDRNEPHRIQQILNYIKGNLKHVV
Procedure: as §1

HDAC7 = molecular target: T5, HDAC7 (Homo sapiens, UniProt Q8WUI4)
T5 sequence (Q8WUI4 1-952): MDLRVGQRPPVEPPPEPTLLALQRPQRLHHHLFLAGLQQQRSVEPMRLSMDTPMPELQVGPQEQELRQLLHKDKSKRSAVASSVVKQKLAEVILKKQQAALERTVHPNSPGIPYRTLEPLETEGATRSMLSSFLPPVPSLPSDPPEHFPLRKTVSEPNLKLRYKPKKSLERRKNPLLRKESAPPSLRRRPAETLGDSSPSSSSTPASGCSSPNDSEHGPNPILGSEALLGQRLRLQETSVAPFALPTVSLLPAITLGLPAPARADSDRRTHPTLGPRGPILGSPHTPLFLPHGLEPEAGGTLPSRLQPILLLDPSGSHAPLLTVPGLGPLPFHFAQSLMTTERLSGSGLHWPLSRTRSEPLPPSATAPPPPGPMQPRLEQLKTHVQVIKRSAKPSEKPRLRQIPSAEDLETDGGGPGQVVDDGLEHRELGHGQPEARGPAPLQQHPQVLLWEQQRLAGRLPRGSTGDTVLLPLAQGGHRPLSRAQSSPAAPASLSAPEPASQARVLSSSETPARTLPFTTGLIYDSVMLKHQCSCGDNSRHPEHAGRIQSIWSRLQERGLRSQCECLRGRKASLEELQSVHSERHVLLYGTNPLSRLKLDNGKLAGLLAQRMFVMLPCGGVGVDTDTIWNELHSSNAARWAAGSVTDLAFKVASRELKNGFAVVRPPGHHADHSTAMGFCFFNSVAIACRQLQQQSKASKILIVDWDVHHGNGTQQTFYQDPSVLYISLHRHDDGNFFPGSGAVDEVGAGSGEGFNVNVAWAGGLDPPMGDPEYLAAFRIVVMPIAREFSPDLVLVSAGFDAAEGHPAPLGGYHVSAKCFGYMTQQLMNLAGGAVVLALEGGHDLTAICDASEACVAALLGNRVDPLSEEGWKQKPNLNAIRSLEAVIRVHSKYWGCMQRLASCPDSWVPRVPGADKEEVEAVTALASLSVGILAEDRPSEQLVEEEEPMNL
Procedure: as §1, with “curves.” for “curves. TSA and SAHA were used as reference compounds.”

HDAC9 = HDAC9 (Homo sapiens, UniProt Q9UKV0)
Sequence of HDAC9 (Q9UKV0 whole entry): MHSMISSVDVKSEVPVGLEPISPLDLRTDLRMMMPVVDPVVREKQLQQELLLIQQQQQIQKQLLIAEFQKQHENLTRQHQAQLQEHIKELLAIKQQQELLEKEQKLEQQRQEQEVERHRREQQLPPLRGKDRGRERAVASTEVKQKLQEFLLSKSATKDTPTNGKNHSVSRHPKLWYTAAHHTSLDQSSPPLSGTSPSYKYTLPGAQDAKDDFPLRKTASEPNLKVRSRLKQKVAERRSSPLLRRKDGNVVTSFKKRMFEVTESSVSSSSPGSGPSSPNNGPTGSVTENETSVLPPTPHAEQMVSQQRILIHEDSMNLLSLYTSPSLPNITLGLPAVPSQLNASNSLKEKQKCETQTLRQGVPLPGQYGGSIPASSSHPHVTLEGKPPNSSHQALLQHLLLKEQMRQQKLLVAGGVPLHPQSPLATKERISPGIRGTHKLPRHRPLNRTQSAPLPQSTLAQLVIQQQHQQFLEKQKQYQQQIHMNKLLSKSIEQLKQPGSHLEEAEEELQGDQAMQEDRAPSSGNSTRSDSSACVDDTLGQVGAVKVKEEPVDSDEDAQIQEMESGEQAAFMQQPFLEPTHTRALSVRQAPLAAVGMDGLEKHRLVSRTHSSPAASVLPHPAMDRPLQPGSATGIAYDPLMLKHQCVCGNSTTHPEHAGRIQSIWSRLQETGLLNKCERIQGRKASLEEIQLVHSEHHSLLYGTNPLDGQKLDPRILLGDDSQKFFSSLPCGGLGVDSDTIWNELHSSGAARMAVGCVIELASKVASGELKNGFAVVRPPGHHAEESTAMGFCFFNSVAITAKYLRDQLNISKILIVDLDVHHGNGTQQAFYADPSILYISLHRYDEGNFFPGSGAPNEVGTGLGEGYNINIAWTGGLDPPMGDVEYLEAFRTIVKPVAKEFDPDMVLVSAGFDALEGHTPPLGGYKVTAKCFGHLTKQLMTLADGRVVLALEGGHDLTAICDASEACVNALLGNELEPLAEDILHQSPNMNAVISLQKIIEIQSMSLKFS
Procedure: as §1, with “curves.” for “curves. TSA and SAHA were used as reference compounds.”

pIC50 (HDAC1) | pIC50 (HDAC10) | pIC50 (HDAC11) | pIC50 (HDAC2) | pIC50 (HDAC3) | pIC50 (HDAC4) | pIC50 (HDAC5) | pIC50 (HDAC6) | pIC50 (HDAC8) | pIC50 (HDAC7) | pIC50 (HDAC9) | Compound
6.06 | 5.64 | 6.02 | 5.48 | 5.95 | 5.27 | 5.78 | 7.23 | 6.27 | 5.37 | 5.69 | COc1cc2cc(c1)C(=O)Nc1ccccc1NC(=O)[C@H](CCCCCC(=O)NO)OC/C=C\2 [Example 1, 6-((Z)—(S)-19-methoxy-2,11-dioxo-13-oxa-3,10-diaza-tricyclo[15.3.1.0*4,9*]henicosa-1(21),4,6,8,15,17,19-heptaen-12-yl)-hexanoic hydroxamic acid]
5.87 | 5.73 | 5.95 | 5.60 | 6.05 | 5.46 | 5.87 | 7.12 | 6.17 | 5.68 | 5.94 | COc1cc2cc(c1)C(=O)Nc1ccccc1NC(=O)[C@@H](CCCCCC(=O)NO)OC/C=C\2 [Example 2, 6-((Z)—(R)-19-methoxy-2,11-dioxo-13-oxa-3,10-diaza-tricyclo[15.3.1.0*4,9*]henicosa-1(21),4,6,8,15,17,19-heptaen-12-yl)-hexanoic hydroxamic acid]
6.61 | 6.20 | 6.42 | 6.23 | 6.48 | 5.77 | 6.30 | 8.36 | 6.53 | 5.65 | 6.22 | (S)-2-(6,18-dioxo-5,6,7,9,10,11,12,13,18,19-decahydrobenzo[5,6][1,4,7]-oxadiazacyclo-tetradecino[10,9-b]indol-7-yl)-N-hydroxyacetamide [Example 3]
